The source of these data is article PMC7672604, “Design, Synthesis, Molecular Docking, Antiapoptotic and Caspase-3 Inhibition of New 1,2,3-Triazole/Bis-2(1H)-Quinolinone Hybrids” (Molecules, 2020).

“And” between values parts separate entries of the source, which are not always exact repeats. Equal entries are not always repeated.

Common to all, as to format: in vivo
Test [1] has as its system testis of I/R rats. In words: Testicular testosterone in testis of I/R rats (ELISA). Particulars: i.p. 1 h before ischemia, dose equivalent to 30 mg NAC, mean ± S.E.M, n=6. Set-up: unit not given here. The procedure:
(§1) This section describes the methods used in the investigation of the antiapoptotic effect of the novel compounds 6a–g then supported by further histological and molecular docking studies. The antiapoptotic effect of 6a–g was evaluated through evaluation of decreasing tissue damage induced by I/R in the testis of rats in a dose equivalent to 30 mg N-acetylcysteine (NAC) as an antiapoptotic reference. The rats were subdivided into sham, I/R, NAC and treated with tested compounds groups, each group comprises of 6 rats (weighing 140–150 g). The targeted compounds 6a–g were administrated intra-peritoneal (i.p.) an hour before ischemia, which lasted for (0.5 h) then reperfusion (1 h) followed by cutting the organ (Figure 5). Different biomarkers concentrations were measured in serum to detect testis injury due to ischemia/reperfusion (I/R).
(§2) It was reported that excessive apoptosis in the testis could damage the Leydig cells and apparent decline in serum testosterone levels. Furthermore, excessive apoptosis of Leydig cells results in decreased testosterone. The assays of the apoptotic biomarkers (testicular testosterone and TNFα) were done in comparison with the sham and NAC treated group and the results were outlined in Table S4 (Supplementary Materials).
(§3) TNF-α was measured by ELISA kit (Elabscience, Houston, TX, USA). Caspase-3 was measured by ELISA kit Cusabio, Houston, TX, USA (See Supplementary Materials). Testosterone concentration in testicular samples was determined by the ELISA kit (“DRG”, Marburg, Germany) (See Supplementary Materials).
1.2.Determination of serum testosterone using ELISA kit
This ELISA kit uses the Competitive-ELISA principle. The micro ELISA plate provided in this kit has been pre-coated with T. During the reaction, T in the sample or standard competes with a fixed amount of T on the solid phase supporter for sites on the Biotinylated Detection Ab specific to T. Excess conjugate and unbound sample or standard are washed from the plate, and Avidin conjugated to Horseradish Peroxidase (HRP) are added to each microplate well and incubated. Then a TMB substrate solution is added to each well. The enzyme-substrate reaction is terminated by the addition of stop solution and the color change is measured spectrophotometrically at a wavelength of 450 nm ± 2 nm. The concentration of T in the samples is then determined by comparing the OD of the samples to the standard […]
Serum: Allow samples to clot for 2 hours at room temperature or overnight at 4℃ before centrifugation for 20 min at 1000×g at 2-8℃. Collect the supernatant to carry out the assay. Blood collection tubes should be disposable and be non-endotoxin. […]
1. Bring all reagents to room temperature (18~25℃) before use. Follow the Microplate reader manual for set-up and preheat it for 15 min before OD measurement.
2. Wash Buffer: Dilute 30 mL of Concentrated Wash Buffer with 720 mL of deionized or distilled water to prepare 750 mL of Wash Buffer. Note: if crystals have formed in the concentrate, warm it in a 40℃ water-bath and mix it gently until the crystals have completely dissolved.
3. Standard working solution: Centrifuge the standard at 10,000×g for 1min. Add 1.0mL of Reference Standard &Sample Diluent, let it stand for 10min and invert it gently several times. After it dissolves fully, mix it thoroughly with a pipette. This reconstitution produces a working solution of 20 ng/mL. Then make serial dilutions as needed. The recommended dilution gradient is as […]
Dilution method: Take 7 EP tubes, add 500uL of Reference Standard & Sample Diluent to each tube. Pipette 500uL of the 20 ng/mL working solution to the first tube and mix up to produce a 10 ng/mL working solution. Pipette 500uL of the solution from the former tube to the latter one according to this step. The illustration below is for reference. Note: the last tube is regarded as a blank. Don’t pipette solution into it from the former tube.
Background: In an ELISA, binding on a coated surface is turned into a signal by an enzyme label.

Test [2] relates to caspase-3. In words: Caspase-3 level in serum of testicular I/R rats (ELISA). Conditions: mean ± S.E.M, n=6. Here is the method:
as §1
Caspases can delay apoptosis, implicating a potential role in drug screening efforts. Therefore, we studied the mechanism of the caspase-3 inhibition activity. Caspase-3 was assayed in the serum of rats treated with 6a–g in comparison with sham and the NAC treated group, as shown in Table S5 (Supplementary Materials).
as §3

The test system of test [3] is testis of I/R rats. Nature of the test: TNFα in testis of I/R rats (ELISA). Conditions: i.p. 1 h before ischemia, dose equivalent to 30 mg NAC, mean ± S.E.M, n=6. The procedure:
as §1, §2, §3

The test system of test [4] is testis of I/R rats. In words: Testicular MDA in testis of I/R rats. Particulars: i.p. 1 h before ischemia, dose equivalent to 30 mg NAC, mean ± S.E.M, n=6. The procedure: as §1
(§4) During the long testicular torsion, oxidation damage affects the testis by the production of the reactive oxygen species (ROS). Excessive generation of the ROS interacts with lipids, proteins, and nucleic acids, which has an adverse effect on cell function and damage. The testis has high cell metabolism such that excessive ROS production weakens antioxidant capacity. Malondialdehyde (MDA) is the end product of lipid peroxidation and increased MDA level has an adverse effect on sperm fertility. Furthermore, total antioxidant capacity (TAC) is the measure of the number of free radicals scavenged by a test solution, being used to evaluate the antioxidant capacity of biological samples [55]. The data collected in Table S3 (Supplementary Materials) have identified that there was a significant increase in testicular MDA with a significant decrease in testicular TAC in the I/R group as well as compounds 6d and 6f when compared to sham control and NAC groups. These findings indicate that both 6d and 6f are the worst antiapoptotic compounds compound amongst all the synthesized compounds.
TAC was assessed by the colorimetric technique using commercial kits (El-Minia, Egypt) (See Supplementary Materials). Testicular MDA, an index of lipid peroxidation, was determined by using 1,1,3,3-tetramethoxypropane as standard (See Supplementary Materials).

Test [5] relates to testis of I/R rats. In words: Testicular TAC in testis of I/R rats. Particulars: i.p. 1 h before ischemia, dose equivalent to 30 mg NAC, mean ± S.E.M, n=6. The procedure: as §1, §4
TAC was assessed by the colorimetric technique using commercial kits (El-Minia, Egypt) (See Supplementary Materials). Testicular MDA, an index of lipid peroxidation, was determined by using 1,1,3,3-tetramethoxypropane as standard (See Supplementary Materials). […]
1.3.Determination of Total Antioxidant Capacity (Testicular tissue)
Free radicals or reactive oxygen species (ROS) are produced during biochemical redox reactions as part
of normal physiological cell metabolism (protection from infectious organisms) and as a response to
environmental factors such as UV light, cigarette smoke, environmental pollutants, and g-radiation. Once
formed, ROS attack cellular components causing damage to lipids, proteins, and DNA which can initiate
Antioxidants in the sample reduce dark blue-green colored ABTS radical to colorless reduced ABTS
form. The change of absorbance at 660 nm is related with total antioxidant level of the sample. The assay
is calibrated with a stable antioxidant standard solution which is traditionally named as Trolox
Equivalent that is a vitamin E analog.
The determination of the antioxidative capacity is performed by the reaction of antioxidants in the
sample with a defined amount of exogenously provide hydrogen peroxide (H2O2) The antioxidants in the
sample eliminate a certain amount of the provided hydrogen peroxide. The residual H2O2 is determined
(1 picture or pasted object on this page, not shown here)
colorimetrically by an enzymatic reaction which involves the conversion of 3,5,dichloro–2–hydroxy
benzensulphonate to a colored product.
* Dilute R11000 times immediately before use (10 μl R1 + 10 ml d. Water mix Discard after use.
*Working Reagent: mix equal volumes of R2 and R3 immediately before use.
*Dilute sample if necessary
Total Antioxidant concentration […]

For `COc1ccc2[nH]c(=O)cc(-n3cc(COc4cc(=O)[nH]c5ccccc45)nn3)c2c1` [6c, 6-Methoxy-4-(4-(((2-oxo-1,2-dihydroquinolin-4-yl)oxy)methyl)-1H-1,2,3-triazol-1-yl)-quinolin-2(1H)-one], the Testicular testosterone in test [1] was found to be 5.00±0.26. In test [2], this compound gave a Caspase-3 level of 2.39 ± 0.23 ng/mL. Besides, the TNF-α in test [3] turned out to be 106.70 ± 4.75 pg/mL. For the same compound, in test [4], the “Testicular MDA” value came to 64.93±4.50 nmol/g tissue. Besides, in test [5], the “Testicular TAC” value amounted to 4.78±0.39 mmol/g tissue.

For `Cn1c(=O)cc(-n2cc(COc3cc(=O)[nH]c4ccccc34)nn2)c2ccccc21` [6d, 1-Methyl-4-(4-(((2-oxo-1,2-dihydroquinolin-4-yl)oxy)methyl)-1H-1,2,3-triazol-1-yl)quinolin-2(1H)-one], the Testicular testosterone in test [1] was 2.67±0.25. The same compound registered a Caspase-3 level in test [2] of 15.28 ± 1.51 ng/mL. The TNF-α in test [3] turned out to be 234.50 ± 6.15 pg/mL. Also, in test [4], the “Testicular MDA” value worked out at 117.50 ± 3.71 nmol/g tissue. Also, the “Testicular TAC” value in test [5] is given as 1.89±0.29 mmol/g tissue.

As for `Cc1ccc2[nH]c(=O)cc(OCc3cn(-c4cc(=O)[nH]c5ccccc45)nn3)c2c1` [6e, 6-Methyl-4-((1-(2-oxo-1,2-dihydroquinolin-4-yl)-1H-1,2,3-triazol-4-yl)methoxy)quinolin-2(1H)-one], in test [1], the Testicular testosterone came out at 3.62±0.17. For the same compound, the Caspase-3 level in test [2] turned out to be 7.86 ± 0.28 ng/mL. In test [3], the TNF-α amounted to 188.90 ± 6.82 pg/mL. In test [4], the “Testicular MDA” value amounted to 85.00±6.46 nmol/g tissue. Further, the “Testicular TAC” value in test [5] stood at 3.34±0.25 mmol/g tissue.

For `Cc1ccc2[nH]c(=O)cc(OCc3cn(-c4cc(=O)[nH]c5ccc(C)cc45)nn3)c2c1` [6f, 6-Methyl-4-((1-(6-methyl-2-oxo-1,2-dihydroquinolin-4-yl)-1H-1,2,3-triazol-4-yl)meth-oxy)quinolin-2(1H)-one], in test [1], the Testicular testosterone was 1.83±0.14. The compound further came in with a Caspase-3 level in test [2] of 16.34 ± 1.49 ng/mL. The TNF-α in test [3] was 237.90 ± 4.52 pg/mL. In addition, in test [4], the “Testicular MDA” value was found to be 117.00±3.46 nmol/g tissue. Moreover, the “Testicular TAC” value in test [5] stood at 1.73±0.25 mmol/g tissue.

As for `COc1ccc2[nH]c(=O)cc(OCc3cn(-c4cc(=O)[nH]c5ccccc45)nn3)c2c1` [6g, 6-Methoxy-4-((1-(2-oxo-1,2-dihydroquinolin-4-yl)-1H-1,2,3-triazol-4-yl)methoxy)quinolin-2-(1H)-one], the Testicular testosterone in test [1] is given as 3.45±0.22. The Caspase-3 level in test [2] turned out to be 6.99 ± 0.24 ng/mL. For the same compound, in test [3], the TNF-α was 192.00 ± 6.31 pg/mL. The “Testicular MDA” value in test [4] is on record as 89.59±5.58 nmol/g tissue. Further, the “Testicular TAC” value in test [5] was 3.34±0.21 mmol/g tissue.

Compound `CC(=O)N[C@@H](CS)C(=O)O` [NAC, N-acetylcysteine, reference compound] registered a Caspase-3 level in test [2] of 2.54 ± 0.22 ng/mL. For the same compound, in test [3], the TNF-α was found to be 93.39 ± 4.59 pg/mL. Moreover, the “Testicular MDA” value in test [4] was 67.58 nmol/g tissue and 67.58±3.76 nmol/g tissue. The “Testicular TAC” value in test [5] is 4.45 mmol/g tissue and 4.45±0.40 mmol/g tissue.
